Among the data in ChEMBL document CHEMBL5352439, “Design, synthesis, biological evaluation and molecular docking study of novel urea-based benzamide derivatives as potent poly(ADP-ribose) polymerase-1 (PARP-1) inhibitors” (Eur J Med Chem, 2022) are inhibition and IC50 values, retold here.

Test [1] has as its system MDA-MB-231. The test is described as follows: Antiproliferative activity against human MDA-MB-231 cells assessed as inhibition of cell growth at 20 uM incubated for 48 hrs by MTT assay. It is filed as functional.
The subject of test [2] is HCT-116. Put plainly: Antiproliferative activity against human HCT-116 cells assessed as inhibition of cell growth at 20 uM incubated for 48 hrs by MTT assay. It is filed as functional.
Test [3] concerns HeLa. Put plainly: Antiproliferative activity against human HeLa cells assessed as inhibition of cell growth at 20 uM incubated for 48 hrs by MTT assay. It is filed as functional.
In test [4] the test system is A549. Put plainly: Antiproliferative activity against human A549 cells assessed as inhibition of cell growth at 20 uM incubated for 48 hrs by MTT assay. It is filed as functional.
In test [5] the test system is A-375. Put plainly: Antiproliferative activity against human A-375 cells assessed as inhibition of cell growth at 20 uM incubated for 48 hrs by MTT assay. It is filed as functional.
Test [6] has as its system HCT-116. The test is described as follows: Antiproliferative activity against human HCT-116 cells assessed as inhibition of cell growth incubated for 48 hrs by MTT assay. It is filed as functional, cell-based. The note with it: HCT-116, 48 h.
Test [7] concerns MDA-MB-231. The test is described as follows: Antiproliferative activity against human MDA-MB-231 cells assessed as inhibition of cell growth incubated for 48 hrs by MTT assay. The note with it: MDA-MB-231, 48 h. It is filed as functional, cell-based.
In test [8] the test system is HeLa. Put plainly: Antiproliferative activity against human HeLa cells assessed as inhibition of cell growth incubated for 48 hrs by MTT assay. It is filed as functional, cell-based.
Test [9] relates to A549. The test is described as follows: Antiproliferative activity against human A549 cells assessed as inhibition of cell growth incubated for 48 hrs by MTT assay. The note with it: A549, 48 h. It is filed as functional, cell-based.
Test [10] concerns A-375. The test is described as follows: Antiproliferative activity against human A-375 cells assessed as inhibition of cell growth incubated for 48 hrs by MTT assay. It is filed as functional, cell-based. The note with it: A-375, 48 h.

As for `Cc1cccc(NC(=O)Nc2cccc(CNc3ccccc3C(N)=O)c2)c1`, the inhibition at 20 µM with MDA-MB-231 [1] came out at 57.9%; with HCT-116 [2] it was 76.2%; in the test on HeLa [3], 58%; in the test with A549 [4], 58.3%; with A-375 [5] it was 42.4%. The IC50 with HCT-116 [6] came to 25.3 µM; with MDA-MB-231 [7], 24.7 µM; with HeLa [8] it was 29.3 µM; in the test on A549 [9], 26.8 µM; in the test on A-375 [10], 37 µM.

Consider `NC(=O)c1ccccc1OCc1ccc(NC(=O)Nc2cccc(Cl)c2)cc1`, for which the inhibition at 20 µM in the test with MDA-MB-231 [1] is 40.1%; in the test on HCT-116 [2], 74%; with HeLa [3] it was 66.1%; in the test on A549 [4] it was 46.6%; in the test with A-375 [5], 54.2%. Besides, the IC50 turned out to be 16.1 µM in the test with HCT-116 [6]; 24.9 µM in the test on MDA-MB-231 [7]; 15.2 µM in the test with HeLa [8]; 25.8 µM in the test on A549 [9]; 26.7 µM in the test on A-375 [10].

On to `NC(=O)c1ccccc1OCc1ccccc1NC(=O)Nc1cccc(Cl)c1`, for which the inhibition at 20 µM with MDA-MB-231 [1] is 30.2%; with HCT-116 [2], 72.4%; with HeLa [3], 32.7%; with A549 [4], 35.4%; with A-375 [5], 34.1%.

For `NC(=O)c1ccccc1OCc1ccc(NC(=O)Nc2cccc(Br)c2)cc1`, the inhibition at 20 µM in the test on MDA-MB-231 [1] was found to be 46.1%; in the test with HCT-116 [2], 62.2%; with HeLa [3], 60.4%; in the test on A549 [4], 42.4%; with A-375 [5] it was 54%. For the same molecule, the IC50 is 17.6 µM in the test with HCT-116 [6]; 27.4 µM in the test with MDA-MB-231 [7]; 17.6 µM in the test with HeLa [8]; 26.8 µM in the test on A549 [9]; 13.4 µM with A-375 [10].

Take `Cc1cccc(NC(=O)Nc2ccc(COc3ccccc3C(N)=O)cc2)c1`: the inhibition at 20 µM was 42.2% in the test with MDA-MB-231 [1]; 24% in the test with HCT-116 [2]; 37.5% in the test on HeLa [3]; 10% with A549 [4]; 23.7% in the test with A-375 [5].

For `NC(=O)c1ccccc1NCc1cccc(NC(=O)Nc2cccc(Cl)c2)c1`, the inhibition at 20 µM with MDA-MB-231 [1] was determined as 70.9%; with HCT-116 [2] it was 84%; with HeLa [3], 44.4%; in the test with A549 [4], 85.3%; in the test on A-375 [5] it was 75.7%. In addition, the IC50 in the test with HCT-116 [6] was 11.3 µM; with MDA-MB-231 [7] it was 16.1 µM; in the test on HeLa [8], 34 µM; with A549 [9], 15.6 µM; in the test with A-375 [10] it was 25.4 µM.

Regarding `NC(=O)c1ccccc1NCc1ccc(NC(=O)Nc2cccc(F)c2)cc1`, the inhibition at 20 µM was 34.6% with MDA-MB-231 [1]; 27% with HCT-116 [2]; 27.4% in the test with HeLa [3]; 8.3% in the test with A549 [4]; 36.8% with A-375 [5].

As for `COc1cccc(NC(=O)Nc2cccc(COc3ccccc3C(N)=O)c2)c1`, the inhibition at 20 µM in the test on MDA-MB-231 [1] was 38.8%; in the test with HCT-116 [2], 36.8%; with HeLa [3], 33.1%; in the test with A549 [4] it was 15.8%; in the test on A-375 [5], 29.9%.

Consider `Cc1cccc(NC(=O)Nc2ccc(CNc3ccccc3C(N)=O)cc2)c1`, for which the inhibition at 20 µM worked out at 50.5% in the test on MDA-MB-231 [1]; 33.7% in the test on HCT-116 [2]; 39.6% with HeLa [3]; 2.12% with A549 [4]; 14.3% in the test with A-375 [5].

For `NC(=O)c1ccccc1OCc1ccc(NC(=O)Nc2cccc(F)c2)cc1`, the inhibition at 20 µM with MDA-MB-231 [1] was 36.2%; in the test on HCT-116 [2], 43%; in the test on HeLa [3], 33.7%; in the test with A549 [4], 28.6%; in the test on A-375 [5] it was 36.9%.

Regarding `NC(=O)c1ccccc1OCc1cccc(NC(=O)Nc2ccccc2)c1`, the inhibition at 20 µM turned out to be 15% in the test on MDA-MB-231 [1]; 71.1% with HCT-116 [2]; 41% with HeLa [3]; 54.7% in the test on A549 [4]; 40.6% in the test with A-375 [5].

Take `NC(=O)c1ccccc1NCc1ccccc1NC(=O)Nc1ccccc1`: the inhibition at 20 µM with MDA-MB-231 [1] is 40.9%; in the test with HCT-116 [2], 83.3%; in the test on HeLa [3], under 1%; in the test with A549 [4], 17.7%; with A-375 [5], under 1%.

In the case of `COc1cccc(NC(=O)Nc2cccc(CNc3ccccc3C(N)=O)c2)c1`, the inhibition at 20 µM with MDA-MB-231 [1] is 59.1%; in the test on HCT-116 [2] it was 30.2%; in the test on HeLa [3], 27%; in the test with A549 [4], under 1%; with A-375 [5], 25%.

With `NC(=O)c1ccccc1NCc1cccc(NC(=O)Nc2cccc(F)c2)c1`, the inhibition at 20 µM is 58.9% in the test on MDA-MB-231 [1]; 45.6% in the test on HCT-116 [2]; 28.9% in the test on HeLa [3]; under 1% in the test with A549 [4]; 17.9% with A-375 [5].

On to `NC(=O)c1ccccc1NCc1cccc(NC(=O)Nc2ccccc2)c1`, for which the inhibition at 20 µM in the test with MDA-MB-231 [1] was determined as 51.2%; with HCT-116 [2], 64.6%; in the test with HeLa [3] it was 49.8%; with A549 [4], 66.2%; in the test with A-375 [5], 36.9%.

Consider `NC(=O)c1ccccc1OCc1cccc(NC(=O)Nc2cccc(F)c2)c1`, for which the inhibition at 20 µM in the test on MDA-MB-231 [1] amounted to 57.7%; with HCT-116 [2], 32.6%; with HeLa [3] it was 40.1%; in the test with A549 [4], 17%; in the test with A-375 [5] it was 17.5%.

As for `NC(=O)c1ccccc1NCc1ccc(NC(=O)Nc2ccccc2)cc1`, the inhibition at 20 µM in the test with MDA-MB-231 [1] was 45.2%; with HCT-116 [2], 41.2%; in the test with HeLa [3] it was 32.3%; in the test with A549 [4] it was 29%; with A-375 [5], 35%.

As to `COc1cccc(NC(=O)Nc2ccccc2CNc2ccccc2C(N)=O)c1`, the inhibition at 20 µM was 37.7% with MDA-MB-231 [1]; 45.3% in the test with HCT-116 [2]; under 1% in the test with HeLa [3]; 13.1% in the test on A549 [4]; 35.4% in the test on A-375 [5].

Consider `NC(=O)c1ccccc1OCc1ccccc1NC(=O)Nc1cccc(Br)c1`, for which the inhibition at 20 µM in the test with MDA-MB-231 [1] came out at 27.3%; in the test on HCT-116 [2] it was 40.4%; with HeLa [3], 42.5%; in the test on A549 [4] it was 10.1%; with A-375 [5], 31.7%.

On to `NC(=O)c1ccccc1NCc1ccccc1NC(=O)Nc1cccc(Cl)c1`, for which the inhibition at 20 µM with MDA-MB-231 [1] was found to be 36.2%; in the test on HCT-116 [2] it was 44.3%; in the test with HeLa [3] it was 7.53%; in the test on A549 [4] it was 52.6%; in the test with A-375 [5] it was 30%.

Regarding `COc1cccc(NC(=O)Nc2ccccc2COc2ccccc2C(N)=O)c1`, the inhibition at 20 µM with MDA-MB-231 [1] is 37.3%; in the test on HCT-116 [2], 70.2%; in the test on HeLa [3], 26.5%; with A549 [4], under 1%; in the test on A-375 [5] it was 33.1%.

Regarding `NC(=O)c1ccccc1OCc1ccccc1NC(=O)Nc1ccccc1`, the inhibition at 20 µM came out at 30.3% in the test on MDA-MB-231 [1]; 13.3% with HCT-116 [2]; 36% in the test on HeLa [3]; 33% in the test with A549 [4]; 21.7% in the test with A-375 [5].

Turning to `Cc1cccc(NC(=O)Nc2ccccc2CNc2ccccc2C(N)=O)c1`, the inhibition at 20 µM was 17.9% with MDA-MB-231 [1]; 71.9% in the test with HCT-116 [2]; under 1% in the test on HeLa [3]; 1.8% in the test on A549 [4]; 34% with A-375 [5].

In the case of `Cc1cccc(NC(=O)Nc2cccc(COc3ccccc3C(N)=O)c2)c1`, the inhibition at 20 µM with MDA-MB-231 [1] was found to be 3.6%; in the test with HCT-116 [2], 66.5%; in the test with HeLa [3], 48.6%; in the test on A549 [4], 57.7%; with A-375 [5], 43.7%.

On to `Cc1cccc(NC(=O)Nc2ccccc2COc2ccccc2C(N)=O)c1`, for which the inhibition at 20 µM was 37.8% in the test with MDA-MB-231 [1]; 80% in the test with HCT-116 [2]; under 1% with HeLa [3]; 20.6% in the test with A549 [4]; under 1% with A-375 [5].

For `NC(=O)c1ccccc1OCc1ccccc1NC(=O)Nc1cccc(F)c1`, the inhibition at 20 µM is 40.4% in the test with MDA-MB-231 [1]; 18.9% in the test with HCT-116 [2]; under 1% in the test with HeLa [3]; under 1% in the test with A549 [4]; 22.5% in the test on A-375 [5].

For the molecule `NC(=O)c1ccccc1NCc1ccccc1NC(=O)Nc1cccc(F)c1`, the inhibition at 20 µM in the test on MDA-MB-231 [1] was 52.1%; with HCT-116 [2], 40.5%; in the test with HeLa [3] it was 44.6%; in the test on A549 [4] it was under 1%; in the test on A-375 [5], 28.3%.

Turning to `NC(=O)c1ccccc1OCc1ccc(NC(=O)Nc2ccccc2)cc1`, the inhibition at 20 µM with MDA-MB-231 [1] is 45.5%; in the test with HCT-116 [2], 34.2%; in the test with HeLa [3] it was 20.1%; in the test with A549 [4], 24.3%; in the test with A-375 [5], 37.3%.

Consider `NC(=O)c1ccccc1NCc1ccccc1NC(=O)Nc1cccc(Br)c1`, for which the inhibition at 20 µM amounted to 19.2% in the test on MDA-MB-231 [1]; 29.1% in the test with HCT-116 [2]; 15.5% in the test with HeLa [3]; 36.1% in the test on A549 [4]; 38.2% with A-375 [5].

For the molecule `COc1cccc(NC(=O)Nc2ccc(COc3ccccc3C(N)=O)cc2)c1`, the inhibition at 20 µM in the test on MDA-MB-231 [1] was 53.4%; with HCT-116 [2], 56.7%; in the test on HeLa [3], 21%; in the test with A549 [4], 33.1%; in the test on A-375 [5], 33.1%.
